According to paper PMC7983974 (Basic & Clinical Pharmacology & Toxicology, 2020):
Several values for one entry are separate records, joined by “and”; a condition that tells them apart may be missing. Equal entries are not always repeated. Where two headings read alike, the source gives them in different places.

How the values were obtained:
[1] = system: molidustat glucuronidation (clearance); experiment: In vitro-in vivo scaling: predicted increase in molidustat AUC; set-up: species or system human; conditions: based on mass balance study, no differentiation UGT1A1/UGT1A9
UGT1A10 = molecular target: T1, UGT1A10 (Homo sapiens, UniProt Q9HAW8); experiment: M1 formation from molidustat by recombinant UGT1A10; format: in vitro ADME; conditions: 1 and 10 µmol L^−1
T1 sequence (Q9HAW8 26-530): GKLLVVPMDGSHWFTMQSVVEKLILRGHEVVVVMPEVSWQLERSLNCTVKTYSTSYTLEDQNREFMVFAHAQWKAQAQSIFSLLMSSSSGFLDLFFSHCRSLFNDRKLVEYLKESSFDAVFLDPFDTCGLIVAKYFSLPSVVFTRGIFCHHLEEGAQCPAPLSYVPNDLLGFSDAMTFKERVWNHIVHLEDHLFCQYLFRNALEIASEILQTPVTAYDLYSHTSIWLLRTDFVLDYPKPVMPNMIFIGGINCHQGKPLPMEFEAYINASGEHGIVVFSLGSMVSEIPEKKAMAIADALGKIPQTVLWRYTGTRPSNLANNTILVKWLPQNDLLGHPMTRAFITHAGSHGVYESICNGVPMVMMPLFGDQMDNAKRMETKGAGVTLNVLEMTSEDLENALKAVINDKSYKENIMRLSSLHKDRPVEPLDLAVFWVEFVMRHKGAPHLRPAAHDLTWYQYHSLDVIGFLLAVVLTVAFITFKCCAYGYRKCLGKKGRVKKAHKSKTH

UGT2B4 = molecular target: T2, UGT2B4 (Homo sapiens, UniProt P06133); experiment: M1 formation from molidustat by recombinant UGT2B4; format: in vitro ADME; conditions: 1 and 10 µmol L^−1
T2 sequence (P06133 24-528): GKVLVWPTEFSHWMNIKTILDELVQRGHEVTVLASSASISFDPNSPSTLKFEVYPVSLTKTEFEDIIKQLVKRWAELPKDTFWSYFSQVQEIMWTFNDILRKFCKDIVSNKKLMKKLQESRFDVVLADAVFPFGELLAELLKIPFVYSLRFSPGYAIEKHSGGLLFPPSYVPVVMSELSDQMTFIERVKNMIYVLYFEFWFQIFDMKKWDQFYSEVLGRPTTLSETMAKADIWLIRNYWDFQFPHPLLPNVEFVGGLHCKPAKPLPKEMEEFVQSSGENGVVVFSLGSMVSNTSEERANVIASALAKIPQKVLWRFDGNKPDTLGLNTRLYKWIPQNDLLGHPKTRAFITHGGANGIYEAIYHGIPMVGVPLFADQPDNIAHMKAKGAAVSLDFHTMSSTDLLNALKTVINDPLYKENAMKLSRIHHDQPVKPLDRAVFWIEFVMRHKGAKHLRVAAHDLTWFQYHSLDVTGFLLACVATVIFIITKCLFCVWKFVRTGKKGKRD

[2] = format: in vivo, human; conditions: for Point estimate parameter ratio, AUC / Point estimate parameter ratio, AUC(0‐tlast) / Point estimate parameter ratio, C max: (Molidustat + atazanavir)/molidustat, ANOVA
EPO = experiment: Clinical DDI study: pharmacodynamics, serum erythropoietin; format: in vivo, human; conditions: N 13
[3] = Clinical DDI study: safety and tolerability; format: in vivo, human; conditions: n = 14
[4] = male, human, plasma, oral, 25 mg

O=c1c(-n2ccnn2)c[nH]n1-c1cc(N2CCOCC2)ncn1 [Molidustat]
Fraction metabolized via total glucuronidation (fm) [1]: ~ 0.9 and 0.9 | activity for glucuronidation of molidustat (UGT1A10): lacked measurable activity | activity for glucuronidation of molidustat (UGT2B4): lacked measurable activity | Point estimate parameter ratio, AUC [2]: 2.0665 | Point estimate parameter ratio, AUC(0‐tlast) [2]: 2.0766 | Point estimate parameter ratio, C max [2]: 2.0689 | Point estimate parameter ratio, AUC ([2]; listed as molidustat): 2.07 and 2 | Point estimate parameter ratio, AUC(0‐tlast) ([2]; listed as molidustat): 2.08 | Point estimate parameter ratio, C max ([2]; listed as molidustat): 2.07 | increase in exposure for molidustat with concomitant atazanavir ([2]; AUC, AUC(0‐t last), C max): approximately 100% | half-life [2, 4]: 6.3 h | t max [2, 4]: 0.75 h | EPO AUC(0‐24), absolute EPO concentration, arithmetic mean ± SD (EPO): 385 ± 121 IU L^−1*h | EPO AUC(0‐24), absolute EPO concentration, geometric mean/CV% (EPO): 365 IU L^−1*h | EPO C max, difference to baseline, arithmetic mean ± SD (EPO): 12.8 ± 4.02 IU L^−1 | EPO C max, ratio to baseline, arithmetic mean ± SD (EPO): 2.62 ± 0.578 | EPO C max, ratio to baseline, geometric mean/CV% (EPO): 2.56 | Abdominal pain (participants with TEAE) [3]: 0 n (%) | Headache (participants with TEAE) [3]: 0 n (%) | Participants with ≥ 1 TEAE [3]: 0 n (%) | Jaundice (participants with TEAE) ([3]; considered related to atazanavir): 0 n (%)
